Where a name gives a salt, the structure may show the parent alone.
How the values were obtained:
BEC 1 potassium channel = target: T1, BEC 1 potassium channel (Homo sapiens, UniProt Q9ULD8); assay: BEC 1 inhibitory activity using released amount of 86Rb ions from BEC 1-expressing cells; type: cell-based; conditions: 86Rb ion release; for IC50: BEC 1-stably expressing CHO (dhfr-deficient) cell, 100 mM KCl stimulation, read-out: BEC1 IC50; for Inhibition ratio: concentration of test compound is 3 μM
T1 construct: expressed in transfected cells
T1 sequence (Q9ULD8 1-1083): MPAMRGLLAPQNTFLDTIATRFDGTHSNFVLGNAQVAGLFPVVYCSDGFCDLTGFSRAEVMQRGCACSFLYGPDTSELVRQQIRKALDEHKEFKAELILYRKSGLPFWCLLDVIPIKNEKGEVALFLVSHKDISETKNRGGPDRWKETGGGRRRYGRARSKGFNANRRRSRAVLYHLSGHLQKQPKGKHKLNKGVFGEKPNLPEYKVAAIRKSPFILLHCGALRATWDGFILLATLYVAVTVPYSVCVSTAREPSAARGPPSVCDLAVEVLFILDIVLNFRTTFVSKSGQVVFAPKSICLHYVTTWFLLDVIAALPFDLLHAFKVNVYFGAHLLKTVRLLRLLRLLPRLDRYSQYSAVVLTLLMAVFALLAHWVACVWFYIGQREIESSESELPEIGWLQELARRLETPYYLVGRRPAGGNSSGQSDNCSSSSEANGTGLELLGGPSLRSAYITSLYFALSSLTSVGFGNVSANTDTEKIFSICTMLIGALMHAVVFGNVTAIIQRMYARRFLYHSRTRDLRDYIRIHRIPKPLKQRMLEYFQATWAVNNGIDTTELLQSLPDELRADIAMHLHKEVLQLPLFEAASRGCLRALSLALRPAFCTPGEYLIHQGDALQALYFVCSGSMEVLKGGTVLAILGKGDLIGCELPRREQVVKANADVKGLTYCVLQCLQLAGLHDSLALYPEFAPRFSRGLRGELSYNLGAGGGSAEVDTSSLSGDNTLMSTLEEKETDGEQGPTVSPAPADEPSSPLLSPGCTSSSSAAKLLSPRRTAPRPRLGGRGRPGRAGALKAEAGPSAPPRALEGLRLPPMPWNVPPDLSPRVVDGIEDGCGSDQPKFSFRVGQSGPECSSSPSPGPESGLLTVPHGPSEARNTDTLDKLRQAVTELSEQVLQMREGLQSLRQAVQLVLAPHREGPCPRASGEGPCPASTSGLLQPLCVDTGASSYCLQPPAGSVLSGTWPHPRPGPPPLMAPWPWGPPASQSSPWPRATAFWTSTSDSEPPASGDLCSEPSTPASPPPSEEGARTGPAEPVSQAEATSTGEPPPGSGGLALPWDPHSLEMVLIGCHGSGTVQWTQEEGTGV
Experimental: In general, the potassium channel can pass Rb^+ ion similar to K^+ ion, so that the channel activity can be measured using release of a radioisotope ^86Rb^+ as a marker. By incubating cells expressing the novel potassium channel protein together with ^86RbCl (e.g., 18 hr, 37° C.), ^86Rb^+ can be incorporated into the cells. The cells are washed with a low K^+ concentration physiological saline (e.g., 4.5 mM K^+) and then suspended in the same solution. When a high K^+ concentration solution (e.g., 100 mM in final concentration) is added to the cell suspension, membrane potential of the cell is depolarized and the potassium channel therefore is activated. As a result, the intracellular ^86Rb^+ is released into the extracellular part, thus radioactivity of the extracellular solution can be used as a marker of the channel activity. It is possible to screen a compound and a peptide capable of modifying activity of the BEC 1 potassium channel protein, by comparing the radioactivity released into the extracellular part when the high K^+ concentration solution is added in the presence and absence of each drug to be tested.
Method for Measuring BEC 1 Inhibitory Activity of Compounds Using Released Amount of ^86Rb ions as the Index
The channel activity of BEC 1 was measured in accordance with the method described in WO 99/37677, using amount of a radioisotope ^86Rb ion released from a BEC 1-expressing cell as the index. That is, when an ^86Rb ion-incorporated BEC 1-expressing cell was stimulated with 100 mM KCl, the radioactivity released from the cell was used as the channel activity of BEC 1. The ^86Rb ions were incorporated into a BEC 1-stably expressing cell by culturing the cell (3 hours, 37° C.) in the presence of ^86RbCl (0.5 μCi/ml), and the un-incorporated ^86Rb ions were removed by washing three times with HEPES-buffered saline (pH 7.4, 2.5 mM KCl). The cells were incubated with HEPES-buffered saline containing a compound to be tested at room temperature for 15 minutes and then further incubated with 100 mM KCl-containing HEPES-buffered saline (pH 7.4) containing the compound to be tested at room temperature for 5 minutes. The extracellular medium was recovered, and then the remaining cells were lysed with 0.1 N NaOH and recovered.
The Cerenkov radioactivity of the extracellular medium and cell lysate was respectively measured, and their total was used as the total radioactivity. The released amount of ^86Rb ions was expressed by the percentage of extracellular medium radioactivity based on the total radioactivity. The value obtained in the presence of the compound was used as a test value, and the value obtained in the absence of the compound as a control value and the value obtained when not stimulated with 100 mM KCl as a blank value. Inhibitory action of each compound was expressed by % inhibition, namely (control value−test value)×100/(control value−blank value), or by an IC50 value calculated from the % inhibition. As the test results of typical compounds are shown in the following Tables 2 and 3, it was confirmed that said compounds have the BEC 1 potassium channel inhibitory action.
In this connection, as the BEC 1-expressing cell, a BEC 1-stably expressing cell prepared in accordance with the method described in WO 99/37677 using a dihydrofolate reductase (dhfr)-deficient strain of a Chinese hamster ovary cell was used.

Molecule | IC50 (BEC 1 potassium channel) | other results
COc1ccc(Nc2nc(Nc3ccccc3)nc(NC(C)C)n2)cc1 (as salt: HCl) (hydrate or solvate) [Ex 48] | – | melting point: 174 to 177 °C
CONc1nc(Nc2ccccc2)nc(Nc2ccc(F)cc2)n1 (as salt: HCl) (hydrate or solvate) [Example 789] | – | melting point: 140 to 141 °C
CCONc1nc(Nc2ccccc2)nc(Nc2ccc(F)cc2)n1 (as salt: HCl) (hydrate or solvate) [Example 790] | – | melting point: 141 to 143 °C
O=C1OCCC1CNc1nc(Nc2ccccc2)nc(Nc2ccccc2)n1 (centres unmarked) (as salt: HCl) (hydrate or solvate) [compound 24] | – | melting point: 138 to 140 °C
Fc1ccc(Nc2nc(NCc3ccccc3)nc(Nc3ccc(F)cc3)n2)cc1 (as salt: HCl) (hydrate or solvate) [compound 28] | – | melting point: 176 to 178 °C
Fc1ccc(Nc2nc(NCC3CCCO3)nc(Nc3ccc(F)cc3)n2)cc1 (centres unmarked) (as salt: HCl) (hydrate or solvate) [compound 36] | – | melting point: 171 to 174 °C
CC(C)Nc1nc(Nc2ccccc2)nc(Nc2ccc(Cl)cc2)n1 (as salt: HCl) [Ex 46] | – | melting point: 201 to 203 °C
[O-][n+]1ccc(CCNc2nc(Nc3ccccc3)nc(Nc3ccccc3)n2)cc1 [Example 740] | 4900 nM | –
Fc1ccc(Nc2nc(NCc3ccnc(F)c3)nc(Nc3ccc(F)cc3)n2)cc1 [Example 743] | 100 nM | –
Nc1cc(CNc2nc(Nc3ccccc3)nc(Nc3ccc(F)cc3)n2)ccn1 [Example 747] | 3600 nM | –
OCCNc1nc(Nc2ccccc2)nc(Nc2ccc(F)cc2)n1 [Example 773] | 1500 nM | –
CONc1nc(Nc2ccccc2)nc(Nc2ccc(F)cc2)n1 [Example 789] | 9500 nM | –
CCONc1nc(Nc2ccccc2)nc(Nc2ccc(F)cc2)n1 [Example 790] | 4700 nM | –
CN(C)Nc1nc(Nc2ccccc2)nc(Nc2ccc(F)cc2)n1 [Example 791] | 2200 nM | –
CCN(CC)CCCC(C)Nc1nc(Nc2ccccc2)nc(Nc2ccc(F)cc2)n1 (centres unmarked) [Example 794] | 3100 nM | –
Fc1ccc(Nc2nc(NCc3ccnc(F)c3)nc(Nc3ccc(Cl)cc3)n2)cc1 [Example 797] | 650 nM | –
CNc1nc(Nc2ccccc2)nc(Nc2ccccc2)n1 [compound 52] | – | Inhibition ratio (BEC 1 potassium channel): 31%
CCNc1nc(Nc2ccccc2)nc(Nc2ccccc2)n1 [compound 53] | – | Inhibition ratio (BEC 1 potassium channel): 59%
CCCNc1nc(Nc2ccccc2)nc(Nc2ccccc2)n1 [compound 54] | – | Inhibition ratio (BEC 1 potassium channel): 64%
c1ccc(Nc2nc(Nc3ccccc3)nc(NC3CC3)n2)cc1 [compound 62] | – | Inhibition ratio (BEC 1 potassium channel): 44%
N-isopropyl-N′,N″-bis(4-methoxyphenyl)-1,3,5-triazine-1,3,5-triamine hydrochloride [compound 39] | 660 nM | –

The next lines start with results.

IC50 (BEC 1 potassium channel) | Molecule | other results
490 nM | CC(C)Nc1nc(Nc2ccccc2)nc(Nc2ccc(Cl)cc2)n1 [Ex 46] | –
720 nM | Cc1ccc(Nc2nc(Nc3ccccc3)nc(NC(C)C)n2)cc1 [Ex 47] | –
290 nM | COc1ccc(Nc2nc(Nc3ccccc3)nc(NC(C)C)n2)cc1 [Ex 48] | –
140 nM | CC(C)Nc1nc(Nc2ccccc2)nc(Nc2ccc(C(F)(F)F)cc2)n1 [Ex 49] | –
520 nM | c1ccc(Nc2nc(NCC3CCOCC3)nc(Nc3ccccc3)n2)cc1 [Example 741] | –
1400 nM | CC(CCCC(C)(C)O)Nc1nc(Nc2ccccc2)nc(Nc2ccccc2)n1 (centres unmarked) [Example 742] | –
47 nM | Fc1ccc(Nc2nc(NCc3ccco3)nc(Nc3ccccc3)n2)cc1 [Example 764] | –
250 nM | COCCNc1nc(Nc2ccccc2)nc(Nc2ccc(F)cc2)n1 [Example 771] | –
550 nM | OCCCNc1nc(Nc2ccccc2)nc(Nc2ccc(F)cc2)n1 [Example 774] | –
110 nM | OCCCCNc1nc(Nc2ccccc2)nc(Nc2ccc(F)cc2)n1 [Example 775] | –
140 nM | OCCCCCNc1nc(Nc2ccccc2)nc(Nc2ccc(F)cc2)n1 [Example 776] | –
210 nM | OCCOCCNc1nc(Nc2ccccc2)nc(Nc2ccc(F)cc2)n1 [Example 777] | –
700 nM | C[C@H](CO)Nc1nc(Nc2ccccc2)nc(Nc2ccc(F)cc2)n1 [Example 779] | –
420 nM | COCCNc1nc(Nc2ccccc2)nc(Nc2ccc(OC)cc2)n1 [Example 808] | –
1400 nM | Nc1cccc(CNc2nc(Nc3ccccc3)nc(Nc3ccc(F)cc3)n2)n1 [Example 819] | –
84 nM | c1ccc(Nc2nc(NCc3ccncc3)nc(Nc3ccccc3)n2)cc1 [compound 1, N,N′-diphenyl-N″-(4-pyridylmethyl)-1,3,5-triazine-2,4,6-triamine] | –

IC50 (BEC 1 potassium channel) | Molecule | other results
360 nM | C#CCNc1nc(Nc2ccccc2)nc(Nc2ccccc2)n1 [compound 16] | –
1100 nM | COCCCNc1nc(Nc2ccccc2)nc(Nc2ccccc2)n1 [compound 18] | –
1300 nM | CSCCCNc1nc(Nc2ccccc2)nc(Nc2ccccc2)n1 [compound 19] | –
590 nM | OCCCNc1nc(Nc2ccccc2)nc(Nc2ccccc2)n1 [compound 21] | –
240 nM | OCCOCCNc1nc(Nc2ccccc2)nc(Nc2ccccc2)n1 [compound 23] | –
480 nM | O=C1OCCC1CNc1nc(Nc2ccccc2)nc(Nc2ccccc2)n1 (centres unmarked) [compound 24] | –
390 nM | Fc1ccc(Nc2nc(NCc3ccccc3)nc(Nc3ccc(F)cc3)n2)cc1 [compound 28] | –
350 nM | Fc1ccc(CNc2nc(Nc3ccc(F)cc3)nc(Nc3ccc(F)cc3)n2)cc1 [compound 29] | –
73 nM | Fc1ccc(Nc2nc(NCc3ccco3)nc(Nc3ccc(F)cc3)n2)cc1 [compound 30] | –
490 nM | Fc1ccc(Nc2nc(NCc3cccs3)nc(Nc3ccc(F)cc3)n2)cc1 [compound 31] | –
240 nM | COCCNc1nc(Nc2ccc(F)cc2)nc(Nc2ccc(F)cc2)n1 [compound 35] | –
480 nM | Fc1ccc(Nc2nc(NCC3CCCO3)nc(Nc3ccc(F)cc3)n2)cc1 (centres unmarked) [compound 36] | –
260 nM | OCCCCCNc1nc(Nc2ccc(F)cc2)nc(Nc2ccc(F)cc2)n1 [compound 37] | –
180 nM | OCCOCCNc1nc(Nc2ccc(F)cc2)nc(Nc2ccc(F)cc2)n1 [compound 38] | –
630 nM | COc1cccc(Nc2nc(Nc3cccc(OC)c3)nc(NC(C)C)n2)c1 [compound 40] | –
400 nM | CC(C)Nc1nc(Nc2ccc3c(c2)OCO3)nc(Nc2ccc3c(c2)OCO3)n1 [compound 41] | –

— US7375222B2, “2,4,6-Triamino-1,3,5-triazine derivative” (Astellas Pharma Inc., priority 2002, dated 2008)
